pEC50, pIC50: −log10 of the molar value.
Tests used:
HepG2 = assay: CellTiter-Glo cancer cell growth inhibition, HepG2; format: cell-based, human
Text: (§1) The CellTiter-Glo® Luminescent Cell Viability Assay is a sensitive homogeneous method to determine the number of viable cells in culture, Detection is based on using the luciferase reaction to measure the amount of ATP from viable cells. The amount of ATP in cells correlates with cell viability. Within minutes after a loss of membrane integrity, cells lose the ability to synthesize ATP, and endogenous ATPases destroy any remaining ATP; thus the levels of ATP fall precipitously. The CellTiter-Glo® Reagent does three things upon addition to cells. It lyses cell membranes to release ATP; it inhibits endogenous ATPases, and it provides luciferin, luciferase and other reagents necessary to measure ATP using a bioluminescent reaction. The unique properties of a proprietary stable luciferase.
(§2) All assays were performed by Reaction Biology Corporation (Malvern, Pa.) or ChemDiv, Inc. (San Diego, Calif.). All cell lines were purchased from American Type Culture Collection (ATCC, Manassas, Va.), except Huh 7 (RIKEN, Toyo, Japan) and HepaRG (Life Technologies, Carlsbad, Calif.).
(§3) Stock solutions ([…]) were diluted with cell culture media to produce 500× serial dilutions and […] of final compound dilutions were added to cells in assay plates to screen a series of 10 doses starting at […]. Final DMSO concentration was 0.2%. Assay plates are centrifuged at 100 rpm, 1 minute and kept at 37° C., 5% CO2, humidified atmosphere. […] Luminescence intensity was measured for each well using the Tecan M 1000 microplate reader after 5 min of incubation with CellTiter-Glo Reagent. The number of viable cells in culture was determined based on quantitation of the ATP present in each culture well. […] The EC50 curves were plotted and […] values were calculated using the GraphPad Prism 4 program based on a sigmoidal dose-response equation.

Huh7 = assay: CellTiter-Glo cancer cell growth inhibition, Huh7; format: cell-based
Text: as §1, §2, §3

HepaRG = assay: CellTiter-Glo cancer cell growth inhibition, HepaRG; format: cell-based; details: Homo sapiens, 72 h
Text: as §1, §2, §3

A673 = assay: CellTiter-Glo cancer cell growth inhibition, A673; format: cell-based
Text: as §1, §2, §3

PIM1 = target: T1, PIM1 (Homo sapiens, UniProt P11309); assay: LANCE Ultra kinase assay, PIM1; format: biochemical
T1 construct: purchased ProQinase, Freiburg, Germany 0186-0000-1
T1 sequence (P11309 whole entry): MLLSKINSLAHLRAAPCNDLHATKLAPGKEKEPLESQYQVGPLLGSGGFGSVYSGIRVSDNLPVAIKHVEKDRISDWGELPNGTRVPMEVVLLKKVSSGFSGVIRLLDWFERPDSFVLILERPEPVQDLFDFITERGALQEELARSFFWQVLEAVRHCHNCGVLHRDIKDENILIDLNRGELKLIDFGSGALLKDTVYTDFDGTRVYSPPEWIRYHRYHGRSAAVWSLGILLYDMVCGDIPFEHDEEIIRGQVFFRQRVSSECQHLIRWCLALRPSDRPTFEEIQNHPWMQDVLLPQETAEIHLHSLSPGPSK
Text: (§4) The second assay used was Perkin Elmer's LANCE® Ultra kinase assay which uses a ULight™-labeled peptide substrate and an appropriate Europium-labeled anti-phospho antibody. When the substrate becomes phosphorylated by a kinase of interest, the phosphorylated site on the substrate is recognized by the Europium-labeled anti-phospho antibody. […] The intensity of light emission is proportional to the level of ULight peptide phosphorylation. A kinase inhibitor reduces the FRET signal, thus providing an accurate and sensitive measure of inhibition potency.
(§5) The assay was performed in 384-well plates in two steps: PIM kinases were mixed with the ULight-substrate (CREBtide) in buffer and incubated for 10 min. Subsequently, ATP and molecules of the present disclosure were added in a kinase buffer at the appropriate concentration and the reactions were incubated for 1 hour, at room temperature in the dark. • After 1 h EDTA was added to stop the kinase reaction, Eu-W1024-labeled anti-phosphoserine-CREB (Ser133) Antibody (anti-phosphoCREBtide specific antibody) was added to the reaction in LANCE Detection buffer. The mixture was allowed to incubate for 30 min to allow binding of the antibody to the phosphorylated site before the plate was read using a Tecan microplate reader
(§6) Kinase Assay Buffer—50 mM HEPES pH7.0.1 mM EGTA, 10 mM MgCl2, 0.01% BRU-35.
(§7) The inhibitory activity of each compound against PIM kinases was measured with the LANCE® Ultra Kinase Assays by ChemDiv, Inc. (San Diego, Calif.).

PIM2 = target: T2, PIM2 (Homo sapiens, UniProt Q9P1W9); assay: LANCE Ultra kinase assay, PIM2; format: biochemical
T2 construct: purchased ProQinase, Freiburg, Germany 0223-0000-1
T2 sequence (Q9P1W9 whole entry): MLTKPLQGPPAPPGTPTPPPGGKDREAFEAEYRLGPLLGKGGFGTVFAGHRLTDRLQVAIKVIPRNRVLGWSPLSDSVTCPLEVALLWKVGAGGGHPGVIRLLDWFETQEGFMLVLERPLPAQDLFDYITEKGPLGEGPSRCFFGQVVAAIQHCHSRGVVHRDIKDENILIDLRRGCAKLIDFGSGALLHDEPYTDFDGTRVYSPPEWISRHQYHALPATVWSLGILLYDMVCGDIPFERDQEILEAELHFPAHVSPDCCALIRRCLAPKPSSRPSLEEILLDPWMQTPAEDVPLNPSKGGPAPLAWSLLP
Text: as §4, §5, §6, §7

PIM3 = target: T3, PIM3 (Homo sapiens, UniProt Q86V86); assay: LANCE Ultra kinase assay, PIM3; format: biochemical; details: for pIC50: LANCE assay; for Selectivity among PIM1-3 (EC50 plots, FIGS. 2A, 2B): LANCE Ultra assay
T3 construct: purchased SignalChem, Richmond, Canada P37-10BG
Text: as §4, §5, §6, §7

[1] = test system: Hepa1-6 mouse liver cancer cells; assay: Hepa1-6 liver cancer xenograft mice; format: in vivo
Description: Hepa1-6 mouse liver cancer cells are suspended in Hank's balanced salt solution (HBSS)(2×10^7 cells/mL), and the suspension (100 μL) was subcutaneously injected into the back flank of six female CD57 immunocompetent mice. After growing for 21 days, the tumors were resected, cut into small pieces, and inserted under the skin on each back flank of twelve female CD57 mice (24 tumors total). Mice were maintained for 15 days following tumor insertion to establish robust and consistent tumor growth. The mice were randomly split into six groups of two mice each (two tumors per mouse). Alter establishment of the Hepa1-6 xenografts in CD57 mice, tumor dimensions were measured every 2 days using micrometer calipers. Four groups were treated with compound 49 (PO: 25 mg/kg and 50 mg/k; IP: 10 mg/kg and 25 mg/kg) by both oral (PO, gavage) and intraperitoneal (IP) administration once per day (q.d.) and two control groups were administered vehicle only through the same routes for 10 consecutive days. Mice are weighed daily, starting from the date of Hepa1-6 tumor insertion (day 0). At 25 days after subcutaneous inoculation with Hepa1-6 tumors, mice were euthanized via carbon dioxide asphyxiation and all tumors were excised immediately following death, weighed and measured, and then snap-frozen in liquid nitrogen. Tumor volume (TV) was calculated by the following formula: TV=0.5ab^2, where a is tumor length in mm, and b is tumor width in mm. […] Body weight of mice in all groups was maintained within 10% of day 0 baseline.

[2] = growth inhibition, 72 hours, CellTiter-Glo

SMILES	pEC50 (HepG2; Homo sapiens, HepG2, 72 h)	pEC50 (Huh7; Homo sapiens, Huh-7, 72 h)	pEC50 (HepaRG)	pEC50 (A673; Homo sapiens, A673, 72 h)	pIC50 (PIM1; ATP 0.1 mM)	pIC50 (PIM2; ATP 0.1 mM)	pIC50 (PIM3; ATP 0.1 mM)	pIC50 (PIM1; ATP 1 mM)	pIC50 (PIM2; ATP 1 mM)	pIC50 (PIM3; ATP 1 mM)	other results
CNC(=O)c1cc(Oc2ccc(NC(=O)Nc3ccc(Cl)c(C(F)(F)F)c3)cc2)ccn1 [Sorafenib, reference compound]	5.64	5.59	5.85	4.74							
O=C1NC(=O)c2c1c1c3ccc(O)cc3[nH]c1c1c2c2ccc(O)cc2n1CCN1CCCCC1 [Compound 56, 2,10-dihydroxy-12-(2-piperidinoethyl)-12,13-dihydro-5H-indolo[2,3-a]pyrrolo[3,4-c]carbazole-5,7(6H)-dione]	6.50	6.32	7.11	7.46	9.15	7.30	9.00				
O=C1NC(=O)c2c1c1c3ccncc3[nH]c1c1c2c2ccc(O)cc2n1CCN1CCOCC1 [Compound 41]		7.00		8.36				9.38	6.17	8.80	
N[C@@H]1CCCN(c2c(/C=C3\SC(=O)NC3=O)cccc2-c2ccccc2)C1 [AZD-1208, reference compound]											pEC50 (HepG2; [2]): 4.55; pEC50 (Huh7; [2]): 4.87; pEC50 (A673; [2]): 4.71
O=C1NC(=O)c2c1c1c3cc(F)ccc3[nH]c1c1c2c2cc(F)ccc2n1CCN1CCOCC1 [Compound 49, 3,9-difluoro-12-(2-morpholin-4-ylethyl)-12,13-dihydro-5H-indolo[2,3-a]pyrrolo[3,4-c]carbazole-5,7(6H)-dione]	7.40	7.00	< 5.00	7.24	8.40	< 6.00	9.15				Reduction of tumor size relative to control tumors ([1]; IP injection 25 mg/kg q.d., 10 days, CD57 mice): up to 50%; Tumor reduction ([1]; PO dosing (25 mg/kg and 50 mg/kg) q.d., CD57 mice): No tumor reduction was observed; Body weight change vs day 0 baseline ([1]; all groups (PO 25, 50 mg/kg; IP 10, 25 mg/kg)): ≤ 10%; Tumor reduction ([1]; lower doses (IP 10 mg/kg) q.d., CD57 mice): No tumor reduction was observed
O=C1NC(=O)c2c1c1c3ccc(O)cc3[nH]c1c1c2c2ccncc2n1CCN1CCOCC1 [Compound 42]		7.00		8.30				9.80	7.74	8.72	
O=C1NC(=O)c2c1c1c3cc(F)c(O)cc3[nH]c1c1c2c2cc(F)c(O)cc2n1CCN1CCOCC1 [Compound 37, 3,9-difluoro-2,10-dihydroxy-12-(2-morpholinoethyl)-12,13-dihydro-5H-indolo[2,3-a]pyrrolo[3,4-c]carbazole-5,7(6H)-dione]	7.27	7.11	7.80	8.66	9.15	7.89	8.96	9.03	6.74	8.30	
O=C1NC(=O)c2c1c1c3cc(F)ccc3[nH]c1c1c2c2cc(F)ccc2n1CCN1CCCCC1 [Compound 51, 3,9-difluoro-12-(2-piperidin-1-ylethyl)-12,13-dihydro-5H-indolo[2,3-a]pyrrolo[3,4-c]carbazole-5,7(6H)-dione]					8.52	< 6.00	9.10				
C[C@@H]1CCC[C@H](C)N1CCn1c2cc(O)c(F)cc2c2c3c(c4c5cc(F)c(O)cc5[nH]c4c21)C(=O)NC3=O [Compound 59, 12-{2-[(2R,6S)-2,6-dimethylpiperidin-1-yl]ethyl}-3,9-difluoro-2,10-dihydroxy-12,13-dihydro-5H-indolo[2,3-a]pyrrolo[3,4-c]carbazole-5,7(6H)-dione]	6.58	6.03	7.70	8.51	10.00	7.43	8.52				
C[C@@H]1CCC[C@H](C)N1CCn1c2ccc(F)cc2c2c3c(c4c5cc(F)ccc5[nH]c4c21)C(=O)NC3=O [Compound 53, 12-{2-[(2R,6S)-2,6-dimethylpiperidin-1-yl]ethyl}-3,9-difluoro-12,13-dihydro-5H-indolo[2,3-a]pyrrolo[3,4-c]carbazole-5,7(6H)-dione]					8.52	< 6.00	8.62				Selectivity among PIM1-3 (EC50 plots, FIGS. 2A, 2B) (PIM3): PIM1 and PIM3 selectivity
CNC(=O)c1cc(Oc2ccc(NC(=O)Nc3ccc(Cl)c(C(F)(F)F)c3)c(F)c2)ccn1 [Regorafenib, reference compound]	5.37	5.36	5.64	4.52							
O=C1NC(=O)c2c1c1c3ccc(O)cc3[nH]c1c1c2c2ccc(O)cc2n1CCN1CCOCC1 [Compound 32, 2,10-dihydroxy-12-(2-morpholinoethyl)-12,13-dihydro-5H-indolo[2,3-a]pyrrolo[3,4-c]carbazole-5,7(6H)-dione]	6.24	6.62	6.60	7.43	9.09	7.44	8.92	8.70	6.32	8.31	Selectivity among PIM1-3 (EC50 plots, FIGS. 2A, 2B) (PIM3): PIM1 and PIM3 selectivity

Reference: patent US20220274997A1, “PIM KINASE INHIBITOR COMPOSITIONS AND USES THEREOF” (Snap Bio, Inc., priority 2019, published 2022)
